Assay results taken from publication PMC5963757, “Expression, purification, and inhibition profile of dihydrofolate reductase from the filarial nematode Wuchereria bancrofti” (PLoS ONE, 2018).
Values joined by “and” are separate entries in the source; they are usually repeats but may differ in a detail not shown here. Equal values may be shown once. “Also recorded” adds a separate entry of the source. Read-outs that look alike come from different tables or passages of the source.

How the values were obtained:
[1] = molecular target: T1, BmDHFR (Brugia malayi, UniProt A0A4E9FIQ4); set-up: method as in PMID 26669020; conditions: computational prediction, cited from earlier work
[2] = molecular target: T2, WbDHFR (Wuchereria bancrofti, UniProt J9F199); type: biochemical; conditions: for inhibition of WbDHFR (in words): pH 6.0, 25°C
Description: (§1) Compounds (-)-epicatechin, (-)-epicatechin gallate, and vitexin were tested as inhibitors of WbDHFR and BmDHFR. The compounds (-)-epicatechin and (-)-epicatechin gallate were synthesized as described previously. […] Disappearance of DHF and NADPH was observed by measuring absorbance at 340 nm to measure the DHFR activity in a SpectraMax M3 microplate reader. […] All experiments were completed in triplicate.

[3] = molecular target: T1, BmDHFR; assay: biochemical; type: biochemical; conditions: for inhibition of BmDHFR (in words): pH 6.0, 25°C
Description: as §1
A linear equation was fitted to the data at each substrate concentration. […] The KI values for BmDHFR in Table 1 were obtained using the Cheng-Prusoff Equation [18]. […] Inhibitor structures are shown in supporting information (S2 Fig).

[4] = molecular target: T2, WbDHFR; assay: Michaelis-Menten kinetics of WbDHFR, KM for DHF; type: biochemical; conditions: pH 6.0, 25°C, 100 μM NADPH, MTEN buffer; ± S.D.
Description: To characterize DHFR enzymatic activity, we measured absorbance at 340 nm to follow the disappearance of DHF substrate and NADPH cofactor over time. The KM of WbDHFR for DHF was determined over a concentration range of 3.8 to 195 μM DHF, at 25°C, in MTEN buffer (50 mM 2-morpholinoethane sulphonic acid (MES), 25 mM Tris, 25 mM ethanolamine, 100 mM NaCl, and 1mM DTT) at pH 6.0. Initial velocity was plotted as a function of DHF concentration using KaleidaGraph and the Michaelis-Menten equation was fitted to the data. Catalytic activities of WbDHFR and BmDHFR were determined at various pH values (5.5–9.0) in MTEN buffer. The MTEN buffer used for all the reported assays has essentially a constant ionic strength at 0.15 over the pH range for which pH values were measured. Initial velocity was plotted as a function of pH using Excel.
Fig 2 Representative Michaelis-Menten curve. The conditions in the experimental wells (200 μL) were 100 μM NADPH, 12.4 nM WbDHFR in 1 X MTEN buffer at pH 6.0 with DHF concentrations ranging from 0 to 195 μM. The Michaelis-Menten equation was fitted to the data using KaleidaGraph. The Michaelis-Menten constant for DHF was determined by averaging values from fitting three separate data sets and found to be 3.7 ± 2.0 μM (S.D.).

[5] = molecular target: T1, BmDHFR; conditions: read-out: KM previously determined for BmDHFR; cited from earlier work
[6] = molecular target: T1, BmDHFR; set-up: method as in PMID 27544923; conditions: read-out: IC50 BmDHFR found previously; cited from earlier work
[7] = read-out: predicted KI against BmDHFR
[8] = IC50 BmDHFR, pH 6.0, 100 μM NADPH, 50 μM DHF, 40 nM BmDHFR, average of triplicates ± S.D.
[9] = IC50 against BmDHFR Average, average of three trials
[10] = IC50 against BmDHFR Trial 1, individual trial
[11] = IC50 against BmDHFR Trial 2, individual trial
[12] = IC50 against BmDHFR Trial 3, individual trial
[13] = pH 6.0, 100 μM NADPH, 50 μM DHF, 40 nM BmDHFR, average of triplicates ± S.D., read-out: IC50 BmDHFR
[14] = average of three trials, read-out: IC50 against BmDHFR Average
[15] = individual trial, read-out: IC50 against BmDHFR Trial 1
[16] = individual trial, read-out: IC50 against BmDHFR Trial 2
[17] = obtained using the Cheng-Prusoff Equation, upper limit for tight-binding inhibitors, read-out: KI BmDHFR

Molecule: COc1cc(Cc2cnc(N)nc2N)cc(OC)c1OC [Trimethoprim, trimethoprim]
- Ki [1, 7]: 11 µM
- inhibition of WbDHFR (in words) [2]: inhibit
- Ki [3]: 15 ± 3 µM
- IC50 [3, 8]: 65 ± 13 µM
- IC50 [3, 9]: 64.7 µM
- IC50 [3, 10]: 80.4 µM
- IC50 [3, 11]: 61.1 µM
- IC50 [3, 12]: 48.9 µM

Molecule: Oc1cc(O)c2c(c1)O[C@H](c1ccc(O)c(O)c1)[C@H](O)C2 [(-)-Epicatechin, (-)-epicatechin]
- Ki [1, 7]: 76 µM
- inhibition of WbDHFR (in words) [2]: did not observe inhibition; also recorded: neither compound showed any inhibitory activity
- IC50 [3, 13]: > 2500 µM
- inhibition of BmDHFR (in words) [3]: did not observe inhibition; also recorded: neither compound showed any inhibitory activity

Molecule: Cc1nc2ccc(CN(C)c3ccc(C(=O)N[C@@H](CCC(=O)O)C(=O)O)s3)cc2c(=O)[nH]1 [Raltitrexed, raltitrexed]
- inhibition of WbDHFR (in words) [2]: inhibit
- IC50 [3, 14]: 7.3 µM
- IC50 [3, 15]: 7.1 µM
- IC50 [3, 16]: 6.83 µM
- Ki [3, 17]: 1.6 ± 0.04 µM
- IC50 [3, 13]: 7.3 ± 0.2 µM

Molecule: Nc1nc(=O)c2c([nH]1)NCC(CNc1ccc(C(=O)N[C@@H](CCC(=O)O)C(=O)O)cc1)=N2 [DHF, dihydrofolate]
- Km [4]: 3.7 ± 2 µM
- Km [5]: 14.7 ± 3.6 µM

Molecule: CCc1nc(N)nc(N)c1-c1ccc(Cl)cc1 [Pyrimethamine, pyrimethamine]
- inhibition of WbDHFR (in words) [2]: inhibit
- IC50 [3, 14]: 16 µM
- IC50 [3, 15]: 16.4 µM
- IC50 [3, 16]: 21.8 µM
- IC50 ([3]; individual trial, read-out: IC50 against BmDHFR Trial 3): 8.7 µM
- Ki [3, 17]: 3.6 ± 1.5 µM
- IC50 [3, 13]: 15.6 µM and 16 µM
- IC50 [6]: 109 ± 34 µM

Molecule: (-)-epicatechin gallate
- Ki [1, 7]: 48 µM
- IC50 ([2]; pH 6.0, 100 μM NADPH, 50 μM DHF, 12.1 nM WbDHFR, average of triplicates ± S.D., read-out: IC50 WbDHFR): > 1000 µM
- inhibition of WbDHFR (in words) [2]: did not observe inhibition; also recorded: neither compound showed any inhibitory activity
- IC50 [3, 13]: > 1000 µM
- inhibition of BmDHFR (in words) [3]: did not observe inhibition; also recorded: neither compound showed any inhibitory activity

Molecule: CN(Cc1cnc2nc(N)nc(N)c2n1)c1ccc(C(=O)N[C@@H](CCC(=O)O)C(=O)O)cc1 [Methotrexate, methotrexate]
- inhibition of WbDHFR (in words) [2]: inhibit

Molecule: O=c1cc(-c2ccc(O)cc2)oc2c([C@@H]3O[C@H](CO)[C@@H](O)[C@H](O)[C@H]3O)c(O)cc(O)c12 [Vitexin, vitexin]
- Ki ([1]; read-out: predicted inhibitor of BmDHFR): 0.465 µM
- inhibition of WbDHFR (in words) [2]: did not observe inhibition
- IC50 [3, 8]: > 240 µM
- inhibition of BmDHFR (in words) [3]: did not observe any inhibition

Molecule: Nc1nc(N)c2nc(CNc3ccc(C(=O)N[C@@H](CCC(=O)O)C(=O)O)cc3)cnc2n1 [Aminopterin, aminopterin]
- inhibition of WbDHFR (in words) [2]: inhibit
- Ki [3]: < 0.0017 µM
- IC50 [3, 8]: 0.0075 ± 0.0003 µM
- IC50 [3, 9]: 0.00755 µM
- IC50 [3, 10]: 0.0072 µM
- IC50 [3, 11]: 0.0076 µM
- IC50 [3, 12]: 0.00784 µM
